The values that follow come from paper PMC10958501, “4-Oxypiperidine Ethers as Multiple Targeting Ligands at Histamine H3 Receptors and Cholinesterases” (ACS Chemical Neuroscience, 2024).

One data set concerns H3R. The arrangement: method as in PMID 29671795, PMID 23957330. Particulars: cited from earlier work.
Details of data set [1]: method as in PMID 29671795. As to conditions: in vivo; cited from earlier work.
For another data set, the target named is T1, gpH3R (Cavia porcellus, UniProt Q9JI35).
T1 construct: isolated guinea pig ileum electrically stimulated to contraction; from tissue; host or cells: distal ileum of male guinea pigs
Nature of the data set: Ex vivo gpH3R screening on isolated guinea pig ileum electrically stimulated to contraction. As to the method:
All newly synthesized compounds were evaluated ex vivo as H3R antagonists/inverse agonists on guinea pig ileum (gpH3R) stimulated electrically for contraction.[47]
The compounds were tested against H3R by an ex vivo assay using isolated guinea pig ileum electrically stimulated to contraction, according to Vollinga et al.[47] The pA2-values were calculated according to Arunlakshana and Schild.[59] The radioligand-displacement assay was performed in membrane fractions of HEK-293 cells stably expressing hH3R. Cell cultivation and membrane preparation were performed according to Kottke et al.[48] The Ki values were calculated from the IC50 values using the Cheng–Prusoff equation.[60] The statistical calculations were performed on −log(Ki). […] The inhibitory activities toward AChE and BuChE of novel ADS compounds were assessed in a spectrophotometric Ellman’s assay using electric eel AChE (eeAChE) and equine BuChE (eqBuChE).[57] Intracellular cAMP accumulation was measured with a homogeneous TR-FRET immunoassay using the LANCE Ultra cAMP kit (PerkinElmer) and HEK293 cells stably expressing the human histamine H3 receptor.[61] A more detailed description of the biological methods is presented in the Supporting Information.
3. Pharmacological assay results.
3.1. Ex vivo assay for histamine H 3R receptor antagonists on guinea pig ileum.
Male guinea pigs, weighing 300-400 g were euthanized by a blow to the neck. Following this, a 20-30 cm length of the distal ileum, apart from the terminal 5 cm was rapidly removed and […]
USA) (1·10 -6 mol/L). The intraluminal content was rinsed and the isolated intestine was cut into 1.5-2 cm segments. The preparations were mounted between two platinum electrodes […]
and indomethacin (3·10 -7 mol/L).
CO2 mixture and maintained at 37 °C under a constant load of 1.0 g (Hugo Sachs Hebel-Messvorsatz (Tl-2)/HF-modem; Hugo Sachs Elektronik, Hugstetten, Germany) connected to a pen recorder (Kipp & Zonen BD41, Delft, Holland). During an equilibration period of 60 min, the Krebs buffer was changed every 10 min. The preparations were then continuously stimulated at 15-20 V at a frequency of 0.1 Hz for a duration of 0.5 ms, with rectangular-wave electrical pulses (Grass Stimulator S-88; Grass Instruments Co., Quincy, Massachusetts, […]
USA). […] Five minutes before (R)-(−)-α- […]
methylhistamine (RAMH) (Toronto Research Chemicals Inc., North York, Canada), administration, pyrilamine (Sigma-Aldrich, St. Louis, MO, USA) (1·10-5 mol/L concentration in organ bath) was added. The first cumulative concentration-response curve was determined […]
second to fourth curve was measured against increasing antagonist concentration (incubation time 20 min). The pA2-values were calculated according to Arunlakshana and Schild 5.
Statistical analysis was carried out with the Student’s t-test. In all tests, a p<0.05 was […]
considered statistically significant. The pA2 values were compared with the affinity of thioperamide (Sigma-Aldrich, St. Louis, MO, USA). […]

For the next data set, the target named is eqBuChE (Equus caballus, UniProt P81908). The experiment in a line: biochemical. Particulars: for inhibition at 10 µM: read-out: eqBuChE % inh. (10 μM) ± SD; for IC50: read-out: eqBuChE IC50 [μM] ± sem.
The next data set has as its target T2, eeAChE (Electrophorus electricus, UniProt O42275).
T2 construct: purchased Sigma–Aldrich (Steinheim, Germany)
The experiment in a line: biochemical. Particulars: for inhibition at 10 µM: read-out: eeAChE % inh. (10μM) ± SD; for IC50: read-out: eeAChE IC50 (μM) ± sem.

The target in data set [2] is T3, hH3R (Homo sapiens, UniProt Q9Y5N1).
T3 construct: expressed in transfected cells; membrane fractions
Nature of the data set: hH3R radioligand displacement assay in membrane fractions of HEK-293 cells. It counts as binding. As to conditions: [3H]Nα-methylhistamine displacement, HEK-293 membranes; 95% CI in brackets. As to the method:
The compounds were tested against H3R by an ex vivo assay using isolated guinea pig ileum electrically stimulated to contraction, according to Vollinga et al.[47] The pA2-values were calculated according to Arunlakshana and Schild.[59] The radioligand-displacement assay was performed in membrane fractions of HEK-293 cells stably expressing hH3R. Cell cultivation and membrane preparation were performed according to Kottke et al.[48] The Ki values were calculated from the IC50 values using the Cheng–Prusoff equation.[60] The statistical calculations were performed on −log(Ki). The mean values and 95% confidence intervals were transformed to nanomolar concentrations. The inhibitory activities toward AChE and BuChE of novel ADS compounds were assessed in a spectrophotometric Ellman’s assay using electric eel AChE (eeAChE) and equine BuChE (eqBuChE).[57] Intracellular cAMP accumulation was measured with a homogeneous TR-FRET immunoassay using the LANCE Ultra cAMP kit (PerkinElmer) and HEK293 cells stably expressing the human histamine H3 receptor.[61] A more detailed description of the biological methods is presented in the Supporting Information. […]
considered statistically significant. The pA2 values were compared with the affinity of thioperamide (Sigma-Aldrich, St. Louis, MO, USA).
3.2. hH 3R radioligand displacement binding assay.
The radioligand displacement binding assay was performed in membrane fractions of HEK-293 cells stably expressing hH3R. Cell cultivation and membrane preparation was performed according to Kottke et al 6. For the radioligand displacement assay, radioactively labeled […]
assay volume was set to 200 µL. The compounds were tested in several appropriate concentrations between 100 µM and 0.1 nM. Pipetting was partly done by Freedom Evo® (Tecan). Pitolisant was used to determine non-specific binding at a concentration of 10 µM.
The membrane fraction (20 µg/well), test compounds, and radiolabeled ligand were incubated for 90 minutes at 25 °C while shaking. The bound radioligand was separated from the free radioligand by filtration through GF/B filters pre-treated with 0.3 % (m/v) polyethyleneimine using a cell harvester. Radioactivity was determined by liquid scintillation counting using a MicroBeta® Trilux (Perkin Elmer). The data was obtained in duplicates in at least three independent experiments. Non-specific binding was subtracted from the raw data to calculate specific binding values. The evaluation was performed with GraphPad Prism 6.1 (San Diego, CA, USA) using non-linear regression (one-site competition with a logarithmic scale). The Ki values were calculated from the IC50 values using the Cheng-Prusoff equation 7. The statistical calculations were performed on –log(Ki). […]
On the technique in general: Displacement assays read how much labelled ligand stays bound in the presence of the test substance.

The target in data set [3] is T3, hH3R. As to conditions: cited from earlier work.
The test system of another data set is BuChE. The arrangement: method as in PMID 16599255. Particulars: cited from earlier work.
Another data set relates to AChE. As to conditions: cited from earlier work.
Where [4] appears, read: isolated guinea pig ileum, against (R)-(−)-α-methylhistamine, mean of at least three experiments, read-out: gpH3R pA2 ± sem (converted).

Where two headings read alike, the source gives them in different places.

T1 sequence (Q9JI35 whole entry): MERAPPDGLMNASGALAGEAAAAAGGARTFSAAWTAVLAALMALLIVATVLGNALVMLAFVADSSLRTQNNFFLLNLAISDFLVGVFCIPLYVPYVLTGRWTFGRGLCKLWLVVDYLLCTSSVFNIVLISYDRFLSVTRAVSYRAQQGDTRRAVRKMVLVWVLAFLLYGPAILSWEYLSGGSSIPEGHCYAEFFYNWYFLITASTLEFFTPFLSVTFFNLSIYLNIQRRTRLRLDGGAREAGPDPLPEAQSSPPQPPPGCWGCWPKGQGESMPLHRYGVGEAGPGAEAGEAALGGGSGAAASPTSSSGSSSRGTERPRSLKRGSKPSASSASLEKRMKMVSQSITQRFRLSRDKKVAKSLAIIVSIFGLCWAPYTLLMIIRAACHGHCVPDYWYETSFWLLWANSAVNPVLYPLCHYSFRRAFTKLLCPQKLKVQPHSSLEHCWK
T2 sequence (O42275 24-633): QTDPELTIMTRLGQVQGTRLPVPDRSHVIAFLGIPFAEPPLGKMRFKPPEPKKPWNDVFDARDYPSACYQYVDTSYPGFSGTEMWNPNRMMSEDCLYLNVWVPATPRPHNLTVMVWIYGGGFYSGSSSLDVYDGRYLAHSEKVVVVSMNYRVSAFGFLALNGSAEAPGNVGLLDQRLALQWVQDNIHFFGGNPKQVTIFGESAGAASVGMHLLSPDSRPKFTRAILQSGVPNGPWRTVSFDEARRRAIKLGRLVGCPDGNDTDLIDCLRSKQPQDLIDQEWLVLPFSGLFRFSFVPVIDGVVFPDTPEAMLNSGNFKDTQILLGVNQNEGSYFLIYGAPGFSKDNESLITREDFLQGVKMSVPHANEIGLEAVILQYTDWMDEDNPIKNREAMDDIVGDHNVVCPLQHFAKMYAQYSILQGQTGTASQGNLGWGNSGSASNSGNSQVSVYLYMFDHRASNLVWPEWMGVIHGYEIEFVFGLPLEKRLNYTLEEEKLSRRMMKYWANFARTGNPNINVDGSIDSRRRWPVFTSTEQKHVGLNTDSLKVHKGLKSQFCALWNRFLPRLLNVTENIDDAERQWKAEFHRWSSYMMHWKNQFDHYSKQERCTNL
Chain of eqBuChE (P81908 whole entry): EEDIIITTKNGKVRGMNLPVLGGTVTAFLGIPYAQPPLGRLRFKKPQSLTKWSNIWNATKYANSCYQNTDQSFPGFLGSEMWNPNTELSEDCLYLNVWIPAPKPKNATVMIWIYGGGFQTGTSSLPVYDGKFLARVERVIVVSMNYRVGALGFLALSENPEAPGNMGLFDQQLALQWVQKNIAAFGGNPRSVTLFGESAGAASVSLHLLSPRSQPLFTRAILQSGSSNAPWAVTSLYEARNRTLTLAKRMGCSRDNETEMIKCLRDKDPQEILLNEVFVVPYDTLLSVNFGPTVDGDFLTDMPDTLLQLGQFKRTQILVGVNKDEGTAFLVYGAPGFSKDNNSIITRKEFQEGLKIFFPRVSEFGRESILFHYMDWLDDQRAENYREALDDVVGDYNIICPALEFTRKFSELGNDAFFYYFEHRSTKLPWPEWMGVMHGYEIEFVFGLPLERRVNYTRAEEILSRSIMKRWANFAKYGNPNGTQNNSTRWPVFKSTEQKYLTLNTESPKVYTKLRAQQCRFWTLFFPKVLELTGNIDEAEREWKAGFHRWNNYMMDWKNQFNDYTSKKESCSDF
T3 sequence (Q9Y5N1 whole entry): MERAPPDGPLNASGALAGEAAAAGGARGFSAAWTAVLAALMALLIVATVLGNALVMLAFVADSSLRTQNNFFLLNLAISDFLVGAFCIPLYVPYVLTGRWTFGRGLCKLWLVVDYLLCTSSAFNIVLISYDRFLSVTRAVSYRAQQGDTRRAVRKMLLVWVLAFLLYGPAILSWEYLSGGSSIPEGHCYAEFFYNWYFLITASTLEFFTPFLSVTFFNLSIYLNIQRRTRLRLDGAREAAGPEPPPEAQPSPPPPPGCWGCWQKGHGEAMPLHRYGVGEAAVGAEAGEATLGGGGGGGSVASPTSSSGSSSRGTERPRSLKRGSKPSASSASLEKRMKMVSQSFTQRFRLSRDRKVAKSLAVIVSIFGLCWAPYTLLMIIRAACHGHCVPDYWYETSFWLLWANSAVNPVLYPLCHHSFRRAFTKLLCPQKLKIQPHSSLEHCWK

For orientation: pA2 means a measure of antagonist potency on a negative log scale. As to `CCCN(C)CCCCCOC1CCN(Cc2cc3ccccc3o2)CC1` [ADS003, 5-((1-(benzofuran-2-ylmethyl)piperidin-4-yl)oxy)-N-methyl-N-propylpentan-1-amine], the pA2 in the data set on H3R is given as 8.47. The “blood–brain barrier crossing” value in [1] is listed as “ability to cross the blood–brain barrier”.

Take `CCCN(C)CCCCCOC1CCN(Cc2ccccc2)CC1` [ADS009, 5-((1-benzylpiperidin-4-yl)oxy)-N-methyl-N-propylpentan-1-amine]: the pA2 in the data set with H3R is reported as 7.79.

A word on the IC50: it is the concentration needed to halve the response being measured. On to `CCCN(C)c1ccc(OC2CCN(Cc3ccccc3)CC2)cc1` [ADS021, 4-((1-Benzylpiperidin-4-yl)oxy)-N-methyl-N-propylaniline], for which the Kb at gpH3R was above 100 µM. On eqBuChE, the inhibition at 10 µM stood at 95.88 ± 0.2% and the IC50 stood at 0.559 ± 0.125 µM. For the same compound, at eeAChE, the inhibition at 10 µM was 33.4 ± 1.1%.

A word on the Ki: it is a measure of affinity in units of concentration, obtained from inhibition or displacement. With `CCCN(C)Cc1ccc(COC2CCN(Cc3ccccc3)CC2)cc1` [ADS022, N-(4-(((1-Benzylpiperidin-4-yl)oxy)methyl)benzyl)-N-methylpropan-1-amine], the Kb at gpH3R is 0.038 µM. Also, the inhibition at 10 µM at eqBuChE amounted to 49.4 ± 1.9%. In addition, on eeAChE, the inhibition at 10 µM stood at 61.6 ± 2.8% and the IC50 was 6.89 ± 0.271 µM. This compound also returned an inhibition constant Ki at hH3R [2] of 77.1 nM.

Regarding `CCCN(C)c1ccc(OC2CCN(Cc3cc4ccccc4o3)CC2)cc1` [ADS023, 4-((1-(Benzofuran-2-ylmethyl)piperidin-4-yl)oxy)-N-methyl-N-propylaniline], the Kb at gpH3R (setting [4]) is above 100 µM. Further, the figures for the inhibition at 10 µM at eqBuChE and at eeAChE were 43.2 ± 2.1% and 40.3 ± 2.8%, respectively.

The compound `CCCN(C)Cc1ccc(COC2CCN(Cc3cc4ccccc4o3)CC2)cc1` [ADS024, N-(4-(((1-(Benzofuran-2-ylmethyl)piperidin-4-yl)oxy)methyl)benzyl)-N-methylpropan-1-amine] had a Kb on gpH3R of 0.0269 µM. The inhibition at 10 µM on eqBuChE stood at 32.2 ± 2.6%; on eeAChE, 36.2 ± 3.6%. The affinity on hH3R [2], expressed as Ki, was 144 nM.

At gpH3R, `CCCN(C)Cc1cccc(COC2CCN(Cc3ccccc3)CC2)c1` [ADS025, N-(3-(((1-Benzylpiperidin-4-yl)oxy)methyl)benzyl)-N-methylpropan-1-amine] gave a Kb of 0.129 µM. Further, the inhibition at 10 µM at eqBuChE was 63.9 ± 1.7%; on eeAChE, 53.7 ± 1.9%. Also, the half-maximal inhibitory concentration (IC50) on eqBuChE was 6.05 ± 0.16 µM; at eeAChE, 9.94 ± 0.64 µM.

For the compound `CCCN(C)Cc1cccc(COC2CCN(Cc3cc4ccccc4o3)CC2)c1` [ADS026, N-(3-(((1-(Benzofuran-2-ylmethyl)piperidin-4-yl)oxy)methyl)benzyl)-N-methylpropan-1-amine], the Kb on gpH3R (setting [4]) was 0.0933 µM. In addition, the inhibition at 10 µM at eqBuChE was found to be 55.9 ± 2%; on eeAChE it was 5.5 ± 0.6%.

In the case of `CCCN(C)Cc1ccccc1COC1CCN(Cc2ccccc2)CC1` [ADS027, N-(2-(((1-Benzylpiperidin-4-yl)oxy)methyl)benzyl)-N-methylpropan-1-amine], the Kb at gpH3R was 0.151 µM. Further, on eqBuChE, the inhibition at 10 µM came to 64.6 ± 0.9% and the IC50 was 4.31 ± 0.202 µM. Moreover, the inhibition at 10 µM at eeAChE is 4.8 ± 0.3%.

`CCCN(C)Cc1ccccc1COC1CCN(Cc2cc3ccccc3o2)CC1` [ADS028, N-(2-(((1-(Benzofuran-2-ylmethyl)piperidin-4-yl)oxy)methyl)benzyl)-N-methylpropan-1-amine] had a Kb on gpH3R of 0.126 µM. On eqBuChE, the inhibition at 10 µM stood at 79.6 ± 0.4% and the IC50 was 2.65 ± 0.055 µM. Also, the inhibition at 10 µM on eeAChE worked out at 2.3 ± 0.3%.

`CCCN(C)Cc1ccc(-c2ccc(COC3CCN(Cc4ccccc4)CC3)cc2)cc1` [ADS029, N-((4′-(((1-Benzylpiperidin-4-yl)oxy)methyl)-[1,1′-biphenyl]-4-yl)methyl)-N-methylpropan-1-amine] had a Kb on gpH3R of 0.0617 µM. Further, at eqBuChE, the inhibition at 10 µM was 90.8 ± 0.3% and the IC50 turned out to be 1.4 ± 0.055 µM. Also, at eeAChE, the inhibition at 10 µM stood at 69 ± 0.5% and the IC50 was 3.71 ± 0.134 µM.

With `CCCN(C)Cc1ccc(-c2ccc(COC3CCN(Cc4cc5ccccc5o4)CC3)cc2)cc1` [ADS030, N-((4′-(((1-(Benzofuran-2-ylmethyl)piperidin-4-yl)oxy)methyl)-[1,1′-biphenyl]-4-yl)methyl)-N-methylpropan-1-amine], the Kb on gpH3R was 0.257 µM. Besides, on eqBuChE, the inhibition at 10 µM amounted to 83.1 ± 0.4% and the half-maximal inhibitory concentration (IC50) amounted to 1.75 ± 0.077 µM. On eeAChE, the inhibition at 10 µM amounted to 31.2 ± 0.5%.

Take `CCCN(C)Cc1ccc2cc(COC3CCN(Cc4cc5ccccc5o4)CC3)ccc2c1` [ADS032, N-((6-(((1-(Benzofuran-2-ylmethyl)piperidin-4-yl)oxy)methyl)naphthalen-2-yl)methyl)-N-methylpropan-1-amine]: at gpH3R, the Kb was 0.0871 µM. Further, on eqBuChE, the inhibition at 10 µM worked out at 90.3 ± 0.1% and the IC50 was found to be 1.64 ± 0.074 µM. Also, the inhibition at 10 µM on eeAChE came out at 28.1 ± 3.9%. In addition, the inhibitory constant (Ki) at hH3R [2] was determined as 44.1 nM.

For the compound `c1ccc2c(NCc3ccc(CCCN4CCCCC4)cc3)c3c(nc2c1)CCCC3` [III], the inhibitory constant (Ki) at hH3R [3] was 0.0003 µM. Moreover, the figures for the IC50 in the data set with BuChE and with AChE were 0.0088 µM and 0.0026 µM, respectively.

On to `c1cc(-c2ccc(CN3CCCCC3)cc2)ccc1CCN1CCCCC1` [I], for which, in the data set with AChE, the half-inhibitory concentration (IC50) is 1.1 µM.

With `S=C(NC1CCCCC1)N1CCC(c2cnc[nH]2)CC1` [Thioperamide], the pA2 in the data set on H3R is on record as 8.67.
